Patent US20160002204A1 (Board of Regents, The University of Texas System, priority 2014, published 2016)

Tests used:
A549 cells = experiment: A549 proliferation (viability) assay, Cell Titer Fluor, 72 hours; type: cell-based; conditions: Homo sapiens
Procedure, shortened: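 A549 cells seeded at 1000 cells/well, left 24 h, then exposed to compound for 72 h at 37 °C, 5% CO2, final DMSO 0.5% (v/v). Viability read by Cell Titer Fluor fluorescence; EC50 from four-parameter logistic fit.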

[1] = biological target: T1, GLS1 (purified recombinant human GAC) (Homo sapiens, UniProt O94925); experiment: GLS1 enzymatic activity assay (dual-coupled, Amplex UltraRed/resorufin); type: biochemical
T1 sequence (O94925 55-598 isoform O94925-3 limits assumed): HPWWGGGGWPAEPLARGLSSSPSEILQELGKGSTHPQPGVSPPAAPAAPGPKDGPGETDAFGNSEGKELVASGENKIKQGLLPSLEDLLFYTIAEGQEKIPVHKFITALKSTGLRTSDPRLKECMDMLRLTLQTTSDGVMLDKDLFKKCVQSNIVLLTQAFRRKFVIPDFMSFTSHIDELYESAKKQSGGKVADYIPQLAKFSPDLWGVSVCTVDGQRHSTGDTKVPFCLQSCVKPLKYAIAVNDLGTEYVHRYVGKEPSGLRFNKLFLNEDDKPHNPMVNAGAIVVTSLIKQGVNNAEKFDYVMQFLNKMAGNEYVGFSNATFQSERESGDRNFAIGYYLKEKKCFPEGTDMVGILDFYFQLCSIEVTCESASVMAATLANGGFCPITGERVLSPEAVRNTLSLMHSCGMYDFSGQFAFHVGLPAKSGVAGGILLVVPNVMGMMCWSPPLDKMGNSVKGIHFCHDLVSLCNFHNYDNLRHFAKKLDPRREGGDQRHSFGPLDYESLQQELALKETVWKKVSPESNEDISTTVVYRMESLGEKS
Procedure, shortened: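 Recombinant human GAC (2 nM) preincubated with 50 mM potassium phosphate, then inhibitor (10 min each, RT); 1 mM glutamine, pH 7.4 Hepes buffer, 1% DMSO. Glutamate coupled via glutamate oxidase/HRP to resorufin (Ex 530/Em 590), kinetic or 20-min endpoint; IC50 by four-parameter logistic fit.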

| EC50 (A549 cells) [nM] | IC50 [1] [nM] | Structure (SMILES) |
| --- | --- | --- |
| > 5000 | > 5000 | Nc1ccn(CCC(F)Cn2cc(C(=O)NCc3ccc(C(F)(F)F)nc3)nn2)c(=O)c1F (stereo not drawn) [Example 366, 1-[4-(4-amino-3-fluoro-2-oxo-1,2-dihydropyridin-1-yl)-2-fluorobutyl]-N-{[6-(trifluoromethyl)pyridin-3-yl]methyl}-1H-1,2,3-triazole-4-carboxamide] |
| < 100 | < 100 | O=C(CC1CCCC1)Nc1ccn(CCC(F)Cn2cc(C(=O)NCc3ccc(C(F)(F)F)nc3)nn2)c(=O)c1F (stereo not drawn) [Example 369, 1-{4-[4-(2-cyclopentylacetamido)-3-fluoro-2-oxo-1,2-dihydropyridin-1-yl]-2-fluorobutyl}-N-{[6-(trifluoromethyl)pyridin-3-yl]methyl}-1H-1,2,3-triazole-4-carboxamide] |
| 100 to 500 | 100 to 500 | O=C(NCc1ccc(C(F)(F)F)nc1)c1cn(CC(F)CCn2ccc(NC(=O)C3CCCC3)c(F)c2=O)nn1 (stereo not drawn) [Example 370, 1-[4-(4-cyclopentaneamido-3-fluoro-2-oxo-1,2-dihydropyridin-1-yl)-2-fluorobutyl]-N-{[6-(trifluoromethyl)pyridin-3-yl]methyl}-1H-1,2,3-triazole-4-carboxamide] |
| 100 to 500 | < 100 | O=C(Cc1ccccc1F)Nc1ccn(CCC(F)Cn2cc(C(=O)NCc3ccc(C(F)(F)F)nc3)nn2)c(=O)c1F (stereo not drawn) [Example 371, 1-(2-fluoro-4-{3-fluoro-4-[2-(2-fluorophenyl)acetamido]-2-oxo-1,2-dihydropyridin-1-yl}butyl)-N-{[6-(trifluoromethyl)pyridin-3-yl]methyl}-1H-1,2,3-triazole-4-carboxamide] |
| 100 to 500 | < 100 | O=C(NCc1ccc(C(F)(F)F)nc1)c1cn(CC(F)CCn2ccc(NC(=O)C(F)c3ccccc3)c(F)c2=O)nn1 (stereo not drawn) [Example 372, l-{2-fluoro-4-[3-fluoro-4-(2-fluoro-2-phenylacetamido)-2-oxo-1,2-dihydropyridin-1-yl]butyl}-N-{[6-(trifluoromethyl)pyridin-3-yl]methyl}-1H-1,2,3-triazole-4-carboxamide] |
| 500 to 5000 | 100 to 500 | O=C(Cc1ccccc1)Nc1ccn(CCC(F)Cn2cc(C(=O)NCc3ncccc3F)nn2)c(=O)c1F (stereo not drawn) [Example 373, 1-{2-fluoro-4-[3-fluoro-2-oxo-4-(2-phenylacetamido)-1,2-dihydropyridin-1-yl]butyl}-N-[(3-fluoropyridin-2-yl)methyl]-1H-1,2,3-triazole-4-carboxamide] |
| 100 to 500 | < 100 | O=C(CC1CCC1)Nc1ccn(CCC(F)Cn2cc(C(=O)NCc3ccc(CF)nc3)nn2)c(=O)c1F (stereo not drawn) [Example 374, 1-{4-[4-(2-cyclobutylacetamido)-3-fluoro-2-oxo-1,2-dihydropyridin-1-yl]-2-fluorobutyl}-N-{[6-(fluoromethyl)pyridin-3-yl]methyl}-1H-1,2,3-triazole-4-carboxamide] |
| 500 to 5000 | 100 to 500 | O=C(Cc1ccccc1)Nc1ccn(CCC(F)Cn2cc(C(=O)NCc3ccc(CF)nc3)nn2)c(=O)c1F (stereo not drawn) [Example 375, 1-{2-fluoro-4-[3-fluoro-2-oxo-4-(2-phenylacetamido)-1,2-dihydropyridin-1-yl]butyl}-N-{[6-(fluoro-methyl)pyridin-3-yl]methyl}-1H-1,2,3-triazole-4-carboxamide] |
| < 100 | < 100 | O=C(Nc1ccn(CCC(F)Cn2cc(C(=O)NCc3cccc(OC(F)(F)F)c3)nn2)c(=O)c1F)OC1CCC1 (stereo not drawn) [Example 376, cyclobutyl N-(3-fluoro-1-{3-fluoro-4-[4-({[3-(trifluoro-methoxy)phenyl]methyl}carbamoyl)-1H-1,2,3-triazol-1-yl]butyl}-2-oxo-1,2-dihydropyridin-4-yl)carbamate] |
| 500 to 5000 | 100 to 500 | N#Cc1ccc(CNC(=O)c2cn(CC(F)CCn3ccc(NC(=O)Cc4ccccc4)c(F)c3=O)nn2)cn1 (stereo not drawn) [Example 380, N-[(6-cyanopyridin-3-yl)methyl]-1-{2-fluoro-4-[3-fluoro-2-oxo-4-(2-phenylacetamido)-1,2-dihydropyridin-1-yl]butyl}-1H-1,2,3-triazole-4-carboxamide] |
| 500 to 5000 | 100 to 500 | O=C(Cc1ccccc1)Nc1ccn(CCC(F)Cn2cc(C(=O)NCC3CCCC3)nn2)c(=O)c1F (stereo not drawn) [Example 381, N-(cyclopentylmethyl)-1-{2-fluoro-4-[3-fluoro-2-oxo-4-(2-phenylacetamido)-1,2-dihydropyridin-1-yl]butyl}-1H-1,2,3-triazole-4-carboxamide] |
| > 5000 | 500 to 5000 | Nc1ccn(CCC(F)Cn2cc(C(=O)NCc3cccc(OC(F)(F)F)c3)nn2)c(=O)n1 (stereo not drawn) [Example 382, 1-[4-(4-amino-2-oxo-1,2-dihydropyrimidin-1-yl)-2-fluorobutyl]-N-{[3-(trifluoromethoxy)phenyl]methyl}-1H-1,2,3-triazole-4-carboxamide] |

Second part, the molecule before the results:

| Structure (SMILES) | EC50 (A549 cells) [nM] | IC50 [1] [nM] |
| --- | --- | --- |
| O=C(NCc1cncc(C(F)(F)F)c1)c1cn(CC(F)CCn2ccc(NC(=O)C(F)c3ccccc3)c(F)c2=O)nn1 (stereo not drawn) [Example 362, 1-{2-fluoro-4-[3-fluoro-4-(2-fluoro-2-phenylacetamido)-2-oxo-1,2-dihydropyridin-1-yl]butyl}-N-{[5-(trifluoromethyl)pyridin-3-yl]methyl}-1H-1,2,3-triazole-4-carboxamide] | < 100 | < 100 |
| CCOC(=O)N1CCC(CC(=O)Nc2ccn(CCC(F)Cn3cc(C(=O)NCc4cncc(C(F)(F)F)c4)nn3)c(=O)c2F)CC1 (stereo not drawn) [Example 363, ethyl 4-{[(3-fluoro-1-{3-fluoro-4-[4-({[5-(trifluoromethyl)pyridin-3-yl]methyl}carbamoyl)-1H-1,2,3-triazol-1-yl]butyl}-2-oxo-1,2-dihydropyridin-4-yl)carbamoyl]methyl}piperidine-1-carboxylate] | < 100 | < 100 |
| O=C(NCc1cncc(C(F)(F)F)c1)c1cn(CC(F)CCn2ccc(NC(=O)C3CCCC3)c(F)c2=O)nn1 (stereo not drawn) [Example 364, 1-[4-(4-cyclopentaneamido-3-fluoro-2-oxo-1,2-dihydropyridin-1-yl)-2-fluorobutyl]-N-{[5-(trifluoromethyl)pyridin-3-yl]methyl}-1H-1,2,3-triazole-4-carboxamide] | < 100 | < 100 |
| O=C(Cc1ccccc1)Nc1ccn(CCC(F)Cn2cc(C(=O)NCc3ccc(C(F)(F)F)nc3)nn2)c(=O)c1F (stereo not drawn) [Example 367, 1-{2-fluoro-4-[3-fluoro-2-oxo-4-(2-phenylacetamido)-1,2-dihydropyridin-1-yl]butyl}-N-{[6-(trifluoromethyl)pyridin-3-yl]methyl}-1H-1,2,3-triazole-4-carboxamide] | 100 to 500 | < 100 |
| C[C@H](C(=O)Nc1ccn(CCC(F)Cn2cc(C(=O)NCc3ccc(C(F)(F)F)nc3)nn2)c(=O)c1F)c1ccccc1 (stereo partly drawn) [Example 368, 1-(2-fluoro-4-{3-fluoro-2-oxo-4-[(2S)-2-phenylpropanamido]-1,2-dihydropyridin-1-yl}butyl)-N-{[6-(trifluoromethyl)pyridin-3-yl]methyl}-1H-1,2,3-triazole-4-carboxamide] | < 100 | < 100 |
| O=C(Nc1ccn(CCC(F)Cn2cc(C(=O)NCc3cc(C(F)(F)F)ccn3)nn2)c(=O)c1F)OC1CCC1 (stereo not drawn) [Example 377, cyclobutyl N-(3-fluoro-1-{3-fluoro-4-[4-({[4-(trifluoromethyl)pyridin-2-yl]methyl}carbamoyl)-1H-1,2,3-triazol-1-yl]butyl}-2-oxo-1,2-dihydropyridin-4-yl)carbamate] | < 100 | < 100 |
| O=C(Cc1ccccc1)Nc1ccn(CCC(F)Cn2cc(C(=O)NCc3ccc(C(F)(F)F)cn3)nn2)c(=O)c1F (stereo not drawn) [Example 379, 1-{2-fluoro-4-[3-fluoro-2-oxo-4-(2-phenylacetamido)-1,2-dihydropyridin-1-yl]butyl}-N-{[5-(trifluoromethyl)pyridin-2-yl]methyl}-1H-1,2,3-triazole-4-carboxamide] | 100 to 500 | < 100 |
| O=C(Nc1ccn(CCC(F)Cn2cc(C(=O)NCc3cccc(OC(F)(F)F)c3)nn2)c(=O)n1)OC1CCCCC1 (stereo not drawn) [Example 383, cyclohexyl N-(1-{3-fluoro-4-[4-({[3-(trifluoromethoxy)phenyl]methyl}carbamoyl)-1H-1,2,3-triazol-1-yl]butyl}-2-oxo-1,2-dihydropyrimidin-4-yl)carbamate] | < 100 | < 100 |
| CC(C)OC(=O)Nc1ccn(CCC(F)Cn2cc(C(=O)NCc3cccc(OC(F)(F)F)c3)nn2)c(=O)n1 (stereo not drawn) [Example 384, propan-2-yl N-(1-{3-fluoro-4-[4-({[3-(trifluoromethoxy)phenyl]methyl}carbamoyl)-1H-1,2,3-triazol-1-yl]butyl}-2-oxo-1,2-dihydro-pyrimidin-4-yl)carbamate] | 100 to 500 | < 100 |
